The record followed here is publication PMC11820896, “New Compounds with Enhanced Biological Activity Through the Strategic Introduction of Silylated Groups into Hydroxystearic Acids” (Molecules, 2025).

Read-outs that look alike come from different tables or passages of the source.

The subject of one assay is HT29. Put plainly: MTT assay, HT29 cells. The settings on record: for IC50: Homo sapiens, HT-29, means of four experiments. The assay is classed as cell-based, human. Here is the method:
(§1) The human colorectal adenocarcinoma (Caco-2), human colorectal adenocarcinoma (HT29), normal human intestinal (I407), human cervical cancer (HeLa), human breast cancer (MCF7), human bone osteosarcoma (U2OS), and human acute T-cell leukemia (Jurkat J6) cell lines were purchased from American Type Culture Collection (ATCC, Manassas, VA, USA). Cells were cultured in RPMI 1640 medium (Labtek Eurobio, Milan, Italy), supplemented with 10% FCS (Euroclone, Milano, Italy) and 2 mM L-glutamine (Sigma-Aldrich, Milano, Italy), at 37 °C and in a 5% CO2 atmosphere. The compounds were dissolved in DMSO in a 30–40 mM stock solution. In cell treatments, the final DMSO concentration never exceeded 0.1%.
(§2) Cells were seeded in a 96-well culture plastic plate (Sarsted, Milan, Italy), at 5 × 10^4 cells/well and, after 24 h, were exposed to increasing concentrations of the different compounds (from 1 nM to 500 nM) dissolved in RPMI 1640 medium. An MTT assay was performed according to Micheletti et al..
(§3) The absorbance at 570 nm was measured using a multi-well plate reader (Tecan, Männedorf, Switzerland), and data were analyzed by Prism GraphPad 8 software and expressed as IC50 nM.
(Formazan colour is commonly taken as a measure of viable cells.)

Another assay concerns HCT116. As to the kind of experiment: MTT assay, HCT116 cells. The assay is classed as cell-based, human. The method, then: Cells were seeded in a 96-well culture plastic plate (Sarsted, Milan, Italy), at 5 × 10^4 cells/well and, after 24 h, were exposed to increasing concentrations of the different compounds (from 1 nM to 500 nM) dissolved in RPMI 1640 medium. An MTT assay was performed according to […] al.. The absorbance at 570 nm was measured using a multi-well plate reader (Tecan, Männedorf, Switzerland), and data were analyzed by Prism GraphPad 8 software and expressed as IC50 nM.

The next assay has as its system I407. As to the kind of experiment: MTT assay, normal I407 cells. The assay is classed as cell-based. Particulars: Homo sapiens; normal intestinal line; MTT after 24 h of treatment; means of four experiments. The method, then: as §1, §2, §3
Assay [1] has as its system HT29 cells. Put plainly: Cell cycle analysis by flow cytometry (PI). It counts as cell-based, human. Particulars: 50 nM, 24 h. Here is the method:
HT29 cells were treated with compound 4 for 24 h and then detached with 0.11% trypsin/0.02% ethylenediaminetetraacetic acid (EDTA) (Sigma-Aldrich, St. Louis, MO, USA), washed in PBS, and centrifuged. Cells were stained and analyzed according to […] al..

In assay [2] the test system is HT29 cells. As to the kind of experiment: Mitochondrial potential by JC-1 staining. It counts as cell-based, human. Particulars: 24 h treatment. Here is the method:
JC-1 is a dye that is permeable to alive cells and is accumulated in the anionic mitochondrial matrix indicating the level of mitochondrial potential. When present at low concentrations, the JC-1 monomer fluorescence is green (around 535 nm), while at increased concentration, it can aggregate and fluoresces in the red (600 nm). The ratio between the red fluorescence and the green one is directly proportional to the mitochondrial activity. […] Negative controls were treated in the same way, but JC-1 was not added to these samples. The plates were read on the Ensight plate reader, exciting the red fluorescence at 506 nm and the green one at 488 nm, while the emission was, respectively, read at 595 nm and 535 nm, and the ratio between the red and green fluorescence was calculated.

Assay [3] relates to HT29 cells. Put plainly: Cellular content of total magnesium (DCHQ5 assay). The assay is classed as cell-based, human. Particulars: 24 h treatment. The method, then:
To evaluate the total magnesium, the fluorimetric DCHQ5 assay was performed according to Nature Protocol. Briefly, the cells were washed in PBS without Mg and Ca three times, accurately counted, and sonicated at 100 W. A standard curve was prepared with a concentration of MgCl2 between 0.5 and 5 µM in buffer MOPS 2 mM in 50% MetOH. The fluorescent probe DCHQ5 15 µM was added, and the fluorescence was recorded on a PTI Quanta Master C60/2000 spectrofluorometer (Photon Technology International, Inc., Birmingham, NJ, USA). A total of 200 µL of the samples was diluted in the MOPS MetOH buffer, DCHQ5 15 µM was added, and the fluorescence was recorded. The amount of Mg was evaluated by interpolating the fluorescence of the sample with respect to the standard curve expressed as nmoles of magnesium/10^6 cells.

Assay [4] deals with histones H2/H3 and H4 of HT29 cells. Put plainly: Histone acetylation status, Western blot. It counts as cell-based, human. The settings on record: 50 nM, 6 h. Here is the method:
HT29 were seeded at a density of 1.5 × 10^4 cell/cm^2 in a Petri dish and, after 24 h, treated for 6 h with 50 nM of compound 4. Cells were harvested, and histones were extracted by previously isolated nuclei according to […] al.. The proteins were resolved on a 10% gel in MES buffer at 200 V for 35 min and immunoblotted with mouse anti-acetylated lysines (Millipore, Billerica, MA, USA) or rabbit anti-γH2Ax (Santa Cruz Biotechnology, Dallas, TX, USA) primary antibodies. The membranes were developed with Clarity Western ECL Substrate (Bio-Rad, Hercules, CA, USA) after incubation with mouse or rabbit secondary horseradish peroxidase-conjugated antibody (GE Healthcare, Chicago, IL, USA). SDS-PAGE was stained with Coomassie Brilliant Blue R-250 (Bio-Rad, Hercules, CA, USA), while densitometric analyses were performed using a Fluor-S Max MultiImager (Bio-Rad, Hercules, CA, USA), and relative quantification of histone acetylation and histone H2Ax phosphorylation signals were normalized to the H1 signal as a control.
In general terms: Immunoblotting shows a protein as a band on a membrane.

The next assay deals with FASN. As to the kind of experiment: FASN mRNA expression, qRT-PCR. The assay is classed as cell-based, human. Particulars: after 6 h of treatment, HT29. The method, then: (§4) Total RNA from control- and 4-treated HT29 cells was isolated using the RNeasy Mini Kit (Qiagen, Hilden, Germany) according to the manufacturer's protocol. RNA was quantified using the NanoDrop spectrophotometer (Thermo Fisher Scientific, Waltham, MA, USA). RNA (1 μg) was transcribed into cDNA using the PrimeScript RT Master Mix (Perfect Real Time) (Takara Bio, Kusatsu, Japan) according to the manufacturer's instructions. Real-time PCR was performed using the Sybr Premix Ex Taq Takara kit (Takara Bio, Kusatsu, Japan) and the LightCycler 2.0 instrument (Roche Diagnostic, Basel, Switzerland). The following primers (Sigma-Aldrich, Milan, Italy) were used: [NT] (forward) and [NT] (reverse) for FASN detection, [NT] (forward) and [NT] (reverse) for SCD1 detection, and [NT] (forward) and [NT] (reverse) for the detection of β-actin. The first gene analyzed was the housekeeping gene β-actin, and its CT values were used as standards in the ΔΔCT method of result analysis. cDNA samples from HT29-treated cells were compared with untreated control cells.
A general note: In qPCR the cycle at which signal appears reflects the starting amount.

In another assay the test system is SCD1. Put plainly: SCD1 mRNA expression, qRT-PCR. The assay is classed as cell-based, human. The settings on record: after 24 h, HT29. The method, then:
as §4

As usually defined, the IC50 is the concentration that gives 50% inhibition. `CCCCCCCCC[C@H](CCCCCCCC(=O)O)O[Si](C)(C)C(C)(C)C` [Compound 4, (R)-9-((tert-butyldimethylsilyl)oxy)octadecanoic acid]: the IC50 with HT29 (MTT after 24 h of treatment, read-out: IC50 nM, HT29 (Table 2)) was 20.9 ± 0.21 nM; in the assay with HT29 (MTT, na = not active, read-out: In vitro cytotoxic activity (IC50), HT29) it was 20.3 ± 0.24 nM; in the assay with HCT116 (Homo sapiens, HCT-116, MTT after 24 h of treatment, means of four experiments) it was 21.49 ± 0.16 nM; in the assay on I407, 61.91 ± 0.26 nM. For the same molecule, the “S.I. (Selective Index), HT29” value with HT29 (versus normal I407 cells) came out at 2.96. Further, the “S.I. (Selective Index), HCT116” value with HCT116 (versus normal I407 cells) worked out at 2.88. Also, the “decrease in G2/M phase” value in the assay with HT29 cells [1] is reported as 80.3 ± 6.1%. The “decrease in S phase” value in the assay with HT29 cells [1] came out at 66.4 ± 8.9%. In addition, the “increase in the G0/G1 phase” value in the assay with HT29 cells [1] is 41.8 ± 0.2%. In the assay on HT29 cells [2], the “change in mitochondrial potential” value was “does not lead to a change”. Moreover, in the assay on HT29 cells [3], the “reduction in the Mg content” value is −40%. In assay [4], the “acetylation state of histones H2/H3 and H4” value is given as “extended increase”. Moreover, the FASN gene expression entry in the assay with FASN is “marked down-regulation”. For the same molecule, the SCD1 gene expression entry with SCD1 is “decreases”.
